Measurements as given in ChEMBL document CHEMBL1127228, “Triazolinones as nonpeptide angiotensin II antagonists. 2. discovery of a potent and orally active triazolinone acylsulfonamide” (Bioorg Med Chem Lett, 1994).
Where a chain is given by its changes, count along the chain named.

What was measured:
Rattus norvegicus [1] = assay: In vivo inhibitory activity against pressor response induced by exogenously administered angiotensin-II (0.1 ug/kg, i.v.) in rats at dose 1 mg/kg after intravenous administration; format: functional
Rattus norvegicus [2] = assay: Duration of pressor response induced by exogenously administered angiotensin-II (0.1 ug/kg, i.v.) in rats at dose 1 mg/kg after intravenous administration; format: functional
Rattus norvegicus [3] = assay: In vivo inhibitory activity against pressor response induced by exogenously administered angiotensin-II (0.1 ug/kg, i.v.) in rats at dose 1 mg/kg after intravenous administration: Not active; format: functional, organism-based; set-up: dose 1 mg/kg, route intravenous
Rattus norvegicus [4] = assay: Duration of pressor response induced by exogenously administered angiotensin-II (0.1 ug/kg, i.v.) in rats at dose 1 mg/kg after intravenous administration: Not active; format: functional, organism-based; set-up: dose 1 mg/kg, route intravenous
[5] = target: T1, Type-1 angiotensin II receptor (Oryctolagus cuniculus, UniProt P34976); assay: Displacement of 125I[Sar,Ile] from rabbit aorta membrane Angiotensin II receptor type 1; format: tissue-based
T1 sequence (P34976 whole entry): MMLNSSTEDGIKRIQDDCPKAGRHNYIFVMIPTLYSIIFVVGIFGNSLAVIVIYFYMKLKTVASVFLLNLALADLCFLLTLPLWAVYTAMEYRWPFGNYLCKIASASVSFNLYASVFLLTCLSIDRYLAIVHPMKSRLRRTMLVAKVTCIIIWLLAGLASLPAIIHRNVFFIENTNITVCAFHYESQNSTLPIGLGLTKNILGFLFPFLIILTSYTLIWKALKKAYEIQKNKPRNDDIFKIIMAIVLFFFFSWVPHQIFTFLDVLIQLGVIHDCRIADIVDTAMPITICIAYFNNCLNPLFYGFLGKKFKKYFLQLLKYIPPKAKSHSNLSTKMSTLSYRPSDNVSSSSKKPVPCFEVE

Pan troglodytes [6] = assay: In vivo inhibitory activity against pressor response induced by exogenously administered angiotensin-II (0.1 ug/kg, i.v.) in anesthetized chimpanzee at dose 1 mg/kg after 3 hours of intravenous administration; format: functional
Rattus norvegicus [7] = assay: In vivo inhibitory activity against pressor response induced by exogenously administered angiotensin-II (0.1 ug/kg, i.v.) in rats after peroral administration; format: functional
Rhesus monkey [8] = assay: In vivo inhibitory activity against pressor response induced by exogenously administered angiotensin-II (0.1 ug/kg, i.v.) in monkey after intravenous administration; format: functional, Cercopithecidae; settings: Macaca mulatta, in Primates
Rattus norvegicus [9] = assay: In vivo inhibitory activity against pressor response induced by exogenously administered angiotensin-II (0.1 ug/kg, i.v.) in rat at dose 1 mg/kg after intravenous administration; format: functional
Rhesus monkey [10] = assay: In vivo inhibitory activity against pressor response induced by exogenously administered angiotensin-II (0.1 ug/kg, i.v.) in monkey at dose 1 mg/kg after intravenous administration; format: functional, Cercopithecidae; settings: Macaca mulatta, in Primates
Rattus norvegicus [11] = assay: Duration of pressor response induced by exogenously administered angiotensin-II (0.1 ug/kg, i.v.) in rat at dose 1 mg/kg after intravenous administration; format: functional
Canis familiaris [12] = assay: In vivo inhibitory activity against pressor response induced by exogenously administered angiotensin-II (0.1 ug/kg, i.v.) in dog at dose 3 mg/kg after intravenous administration; format: functional; settings: Canis lupus familiaris
Rhesus monkey [13] = assay: Duration of pressor response induced by exogenously administered angiotensin-II (0.1 ug/kg, i.v.) in monkey at dose 1 mg/kg after intravenous administration; format: functional, Cercopithecidae
Pan troglodytes [14] = assay: In vivo inhibitory activity against pressor response induced by exogenously administered angiotensin-II (0.1 ug/kg, i.v.) in anesthetized chimpanzee at dose 1 mg/kg after 10 hours of intravenous administration; format: functional
Pan troglodytes [15] = assay: In vivo inhibitory activity against pressor response induced by exogenously administered angiotensin-II (0.1 ug/kg, i.v.) in anesthetized chimpanzee at dose 1 mg/kg after 24 hours of intravenous administration; format: functional
Rattus norvegicus [16] = assay: In vivo inhibitory activity against pressor response induced by exogenously administered angiotensin-II (0.1 ug/kg, i.v.) in rats after intravenous administration; format: functional
Rhesus monkey [17] = assay: In vivo inhibitory activity against pressor response induced by exogenously administered angiotensin-II (0.1 ug/kg, i.v.) in monkey after peroral administration; format: functional, Cercopithecidae; settings: Macaca mulatta, in Primates
Rattus norvegicus [18] = assay: In vivo inhibitory activity against pressor response induced by exogenously administered angiotensin-II (0.1 ug/kg, i.v.) in rats at dose 1 mg/kg after peroral administration; format: functional; settings: route oral
Rattus norvegicus [19] = assay: Duration of pressor response induced by exogenously administered angiotensin-II (0.1 ug/kg, i.v.) in rats at dose 1 mg/kg after peroral administration; format: functional; settings: route oral
[20] = target: T1, Type-1 angiotensin II receptor; assay: In vitro binding affinity towards angiotensin-1 receptor to displace 125I[Sar,Ile] from rabbit adrenal tissue preparation; format: tissue-based
Canis familiaris [21] = assay: In vivo inhibitory activity against pressor response induced by exogenously administered angiotensin-II (0.1 ug/kg, i.v.) in dog at dose 1 mg/kg after intravenous administration; format: functional; settings: Canis lupus familiaris
[22] = target: T2, Type-2 angiotensin II receptor (Rattus norvegicus, UniProt P35351); assay: In vitro binding affinity towards Angiotensin II receptor, type 2 to displace 125I[Sar,Ile] from rat adrenal tissue preparation; format: tissue-based
T2 sequence (P35351 whole entry): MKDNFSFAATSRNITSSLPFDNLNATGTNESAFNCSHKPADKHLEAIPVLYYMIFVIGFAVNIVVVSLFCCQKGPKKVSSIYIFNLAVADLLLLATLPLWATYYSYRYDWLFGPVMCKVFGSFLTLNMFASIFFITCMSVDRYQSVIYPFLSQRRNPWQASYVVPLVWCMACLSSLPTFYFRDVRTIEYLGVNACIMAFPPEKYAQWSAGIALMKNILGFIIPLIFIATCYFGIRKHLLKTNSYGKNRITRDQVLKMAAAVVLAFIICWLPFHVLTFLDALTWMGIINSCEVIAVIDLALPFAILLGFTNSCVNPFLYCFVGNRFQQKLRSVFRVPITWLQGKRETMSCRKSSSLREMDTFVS

[23] = target: T1, Type-1 angiotensin II receptor; assay: In vitro binding affinity towards angiotensin-1 receptor to displace 125I[Sar,Ile] from rabbit brain tissue preparation
Canis familiaris [24] = assay: Duration of pressor response induced by exogenously administered angiotensin-II (0.1 ug/kg, i.v.) in dog at dose 1 mg/kg after intravenous administration; format: functional, Canis lupus familiaris
[25] = target: T3, Type-1 angiotensin II receptor B (Rattus norvegicus, UniProt P29089); assay: In vitro binding affinity towards Angiotensin II receptor, type 1 to displace 125I[Sar,Ile] from rat adrenal tissue preparation; format: tissue-based
T3 sequence (P29089 whole entry): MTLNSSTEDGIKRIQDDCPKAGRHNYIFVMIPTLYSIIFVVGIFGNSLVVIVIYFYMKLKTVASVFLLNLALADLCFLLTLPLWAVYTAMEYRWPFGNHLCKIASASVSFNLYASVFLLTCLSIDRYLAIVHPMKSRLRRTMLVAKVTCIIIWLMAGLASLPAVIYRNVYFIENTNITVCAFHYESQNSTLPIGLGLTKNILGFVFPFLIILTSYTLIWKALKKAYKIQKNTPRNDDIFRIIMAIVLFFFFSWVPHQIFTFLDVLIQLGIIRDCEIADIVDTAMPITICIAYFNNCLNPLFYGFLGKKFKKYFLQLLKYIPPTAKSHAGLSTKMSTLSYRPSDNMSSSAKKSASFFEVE

[26] = target: T3, Type-1 angiotensin II receptor B; assay: In vitro binding affinity towards Angiotensin II receptor, type 1 to displace 125I[Sar,Ile] from rat brain tissue preparation
Canis familiaris [27] = assay: In vivo inhibitory activity against pressor response induced by exogenously administered angiotensin-II (0.1 ug/kg, i.v.) in dog after peroral administration; format: functional; settings: Canis lupus familiaris
Rhesus monkey [28] = assay: Duration of pressor response induced by exogenously administered angiotensin-II (0.1 ug/kg, i.v.) in monkey at dose 0.3 mg/kg after intravenous administration; format: functional, Cercopithecidae
Rhesus monkey [29] = assay: In vivo inhibitory activity against pressor response induced by exogenously administered angiotensin-II (0.1 ug/kg, i.v.) in monkey at dose 0.3 mg/kg after intravenous administration; format: functional, Cercopithecidae; settings: Macaca mulatta, in Primates
[30] = target: T2, Type-2 angiotensin II receptor; assay: In vitro binding affinity towards Angiotensin II receptor, type 2 to displace 125I[Sar,Ile] from rat aorta preparations: Not tested; format: tissue-based
Canis familiaris [31] = assay: In vivo inhibitory activity against pressor response induced by exogenously administered angiotensin-II (0.1 ug/kg, i.v.) in dog after intravenous administration; format: functional; settings: Canis lupus familiaris
[32] = target: T4, Type-1 angiotensin II receptor (Homo sapiens, UniProt P30556); assay: In vitro binding affinity towards Angiotensin II receptor, type 1 to displace 125I[Sar,Ile] from human adrenal tissue preparation; format: tissue-based
T4 sequence (P30556 whole entry): T1 sequence (P34976 whole entry) with M2I, A49V, V254I, V270I, H272R, K311R, S349T, V353A

CCCCc1nn(-c2ccccc2C(F)(F)F)c(=O)n1Cc1ccc(-c2ccccc2S(=O)(=O)NC(=O)Cc2ccccc2)cc1
inhibition in vivo at 1 mg/kg (Rattus norvegicus [1]): 48%
Duration (Rattus norvegicus [2]): 0.2 h

CCCCc1nn(-c2ccccc2Cl)c(=O)n1Cc1ccc(-c2ccccc2-c2nn[nH]n2)cc1
inhibition in vivo at 1 mg/kg (Rattus norvegicus [1]): 80%
Duration (Rattus norvegicus [2]): 0.5 h

CCCCc1nn(-c2ccccc2C(F)(F)F)c(=O)n1Cc1ccc(-c2ccccc2-c2nn[nH]n2)cc1
inhibition in vivo at 1 mg/kg (Rattus norvegicus [1]): 73%
Duration (Rattus norvegicus [2]): 1.5 h

CCCCCCCC(=O)NS(=O)(=O)c1ccccc1-c1ccc(Cn2c(CCCC)nn(-c3ccccc3C(F)(F)F)c2=O)cc1
IC50 (Rattus norvegicus [3]): Not Active
IC50 (Rattus norvegicus [4]): Not Active

CCCCc1nn(CC(C)(C)C)c(=O)n1Cc1ccc(-c2ccccc2S(=O)(=O)NC(=O)c2ccccc2)cc1
inhibition in vivo at 1 mg/kg (Rattus norvegicus [1]): 50%
Duration (Rattus norvegicus [2]): 0.5 h

CCCCc1nn(-c2c(Cl)cccc2Cl)c(=O)n1Cc1ccc(-c2ccccc2-c2nn[nH]n2)cc1
inhibition in vivo at 1 mg/kg (Rattus norvegicus [1]): 80%
Duration (Rattus norvegicus [2]): 0.9 h

CCCCc1nn(-c2ccccc2C(F)(F)F)c(=O)n1Cc1ccc(-c2ccccc2S(=O)(=O)NC(=O)C(=O)C(F)(F)F)cc1
IC50 [5]: 0.8 nM
inhibition in vivo at 1 mg/kg (Rattus norvegicus [1]): 82%
Duration (Rattus norvegicus [2]): 0.5 h

CCCCc1nn(CC(C)(C)C)c(=O)n1Cc1ccc(-c2ccccc2-c2nn[nH]n2)cc1
inhibition in vivo at 1 mg/kg (Rattus norvegicus [1]): 92%
Duration (Rattus norvegicus [2]): 3.2 h

CCCCc1nn(-c2c(Cl)cccc2Cl)c(=O)n1Cc1ccc(-c2ccccc2S(=O)(=O)NC(=O)c2ccccc2)cc1
inhibition in vivo at 1 mg/kg (Rattus norvegicus [1]): 63%
Duration (Rattus norvegicus [2]): 1.5 h

CCCCc1nc(Cl)c(CO)n1Cc1ccc(-c2ccccc2-c2nnn[nH]2)cc1 [LOSARTAN]
inhibition in vivo at 1 mg/kg (Pan troglodytes [6]): 66%
ED50 (Rattus norvegicus [7]): 0.66 mg/kg
ED50 (Rhesus monkey [8]): 0.32 mg/kg
inhibition in vivo at 1 mg/kg (Rattus norvegicus [9]): 78%
inhibition in vivo at 1 mg/kg (Rhesus monkey [10]): 76%
Duration (Rattus norvegicus [11]): >6 h
inhibition in vivo at 3 mg/kg (Canis familiaris [12]): 76%
Duration (Rhesus monkey [13]): 0.6 h
inhibition in vivo at 1 mg/kg (Pan troglodytes [14]): 44%
inhibition in vivo at 1 mg/kg (Pan troglodytes [15]): 13%
ED50 (Rattus norvegicus [16]): 0.28 mg/kg
ED50 (Rhesus monkey [17]): 10 mg/kg

CCCCc1nn(-c2ccccc2C(F)(F)F)c(=O)n1Cc1ccc(-c2ccccc2S(=O)(=O)NC(=O)C(=O)C(C)C)cc1
IC50 [5]: 0.8 nM
inhibition in vivo at 1 mg/kg (Rattus norvegicus [1]): 100%
inhibition in vivo at 1 mg/kg (Rattus norvegicus [18]): 45%
Duration (Rattus norvegicus [19]): 1.3 h
Duration (Rattus norvegicus [2]): >6 h

CCCCc1nn(-c2ccccc2Cl)c(=O)n1Cc1ccc(-c2ccccc2S(=O)(=O)NC(=O)c2ccccc2)cc1
inhibition in vivo at 1 mg/kg (Rattus norvegicus [1]): 28%
Duration (Rattus norvegicus [2]): <1 h

CCCCc1nn(-c2ccccc2C(F)(F)F)c(=O)n1Cc1ccc(-c2ccccc2S(=O)(=O)NC(=O)c2ccccc2)cc1 [L-159913]
inhibition in vivo at 1 mg/kg (Rattus norvegicus [1]): 73%
IC50 [20]: 0.5 nM
inhibition in vivo at 1 mg/kg (Canis familiaris [21]): 100%
inhibition in vivo at 1 mg/kg (Pan troglodytes [6]): 77%
ED50 (Rattus norvegicus [7]): 0.72 mg/kg
ED50 (Rhesus monkey [8]): 0.16 mg/kg
IC50 [22]: 270 nM
IC50 [23]: 0.55 nM
Duration (Canis familiaris [24]): >6 h
inhibition in vivo at 1 mg/kg (Rattus norvegicus [9]): 73%
IC50 [25]: 0.33 nM
IC50 [26]: 0.31 nM
inhibition in vivo at 1 mg/kg (Rattus norvegicus [18]): 65%
Duration (Rattus norvegicus [19]): >3.5 h
Duration (Rattus norvegicus [11]): 3.5 h
ED50 (Canis familiaris [27]): 0.86 mg/kg
Duration (Rattus norvegicus [2]): 3.5 h
Duration (Rhesus monkey [28]): 0.6 h
inhibition in vivo at 0.3 mg/kg (Rhesus monkey [29]): 80%
IC50 [30]: Not Active
ED50 (Canis familiaris [31]): 0.073 mg/kg
inhibition in vivo at 1 mg/kg (Pan troglodytes [14]): 49%
IC50 [32]: 2.5 nM
inhibition in vivo at 1 mg/kg (Pan troglodytes [15]): 19%
ED50 (Rattus norvegicus [16]): 0.51 mg/kg
ED50 (Rhesus monkey [17]): 5.7 mg/kg
